PMC3365592 (European Journal of Medicinal Chemistry, 2012)
Read-outs that look alike come from different tables or passages of the source.

Legend:
[1] = target: T1, 5-HT1A receptors (Rattus norvegicus, UniProt P19327); assay: 5-HT1A receptor binding experiments
T1 sequence (P19327 1-422): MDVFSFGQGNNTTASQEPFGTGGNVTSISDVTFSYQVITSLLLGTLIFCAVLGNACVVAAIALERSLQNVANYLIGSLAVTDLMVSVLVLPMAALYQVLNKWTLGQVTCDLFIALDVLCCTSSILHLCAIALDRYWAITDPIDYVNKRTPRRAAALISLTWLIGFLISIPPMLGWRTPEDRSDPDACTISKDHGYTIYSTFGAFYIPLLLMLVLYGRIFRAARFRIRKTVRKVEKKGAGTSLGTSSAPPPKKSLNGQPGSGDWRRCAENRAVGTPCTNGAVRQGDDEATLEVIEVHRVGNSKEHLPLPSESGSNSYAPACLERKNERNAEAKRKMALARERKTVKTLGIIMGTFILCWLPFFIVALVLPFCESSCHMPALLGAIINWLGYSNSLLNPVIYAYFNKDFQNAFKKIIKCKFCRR

[2] = target: T1, 5-HT1A receptors; details: read-out: 5-HT1A Ki ± SEM; cited from earlier work

Row | Ki [1] [nM] | Structure (SMILES) | Ki [2] [nM]
1 | 1100 ± 400 | O=C1CC2(CCCC2)CC(=O)N1CCCCN1CCN(c2ccc3cc([N+](=O)[O-])ccc3n2)CC1 [Compound 6, 8-{4-[4-(6-Nitro-quinolin-2-yl)-piperazin-1-yl]-butyl}-8-aza-spiro[4.5]decane-7,9-dione] | 
2 |  | CC1CN(c2ccc3ccccc3n2)CCN1CCCCN1C(=O)CC2(CCCC2)CC1=O (stereo not shown) [Compound 16] | 24 ± 3
3 |  | CC1CN(c2ccc3ccccc3n2)CCN1CCCCN1C(=O)CCCC1=O (stereo not shown) [Compound 15] | 37 ± 6
4 |  | CC1CN(c2ccc3ccccc3n2)CCN1CCCN1C(=O)c2ccccc2C1=O (stereo not shown) [Compound 14] | 275
5 | 2100 ± 400 | CC1(C)CC(=O)N(CCCCN2CCN(c3ccc4cc([N+](=O)[O-])ccc4n3)CC2)C(=O)C1 [Compound 8, 4,4-Dimethyl-1-{4-[4-(6-nitro-quinolin-2-yl)-piperazin-1-yl]-butyl}-piperidine-2,6-dione] | 
6 |  | O=C1c2ccccc2C(=O)N1CCCCN1CCN(c2ccc3ccccc3n2)CC1 [Compound 13] | 39
7 | 711 ± 21 | CC1CN(c2ccc3cc([N+](=O)[O-])ccc3n2)CCN1CCCCN1C(=O)CCCC1=O (stereo not shown) [Compound 3, 1-{4-[2-Methyl-4-(6-nitroquinolin-2-yl)piperazin-1-ylo]butyl}piperidine-2,6-dione] | 
8 |  | CC1(C)CC(=O)N(CCCCN2CCN(c3ccc4ccccc4n3)CC2)C(=O)C1 [Compound 19] | 11 ± 2
9 | 10600 ± 3500 | O=C1CCCC(=O)N1CCCCN1CCN(c2ccc3cc([N+](=O)[O-])ccc3n2)CC1 [Compound 4, 1-{4-[4-(6-Nitro-quinolin-2-yl)-piperazin-1-yl]-butyl}-piperidine-2,6-dione] | 
10 | 59000 ± 23100 | O=C1c2ccccc2C(=O)N1CCCCN1CCN(c2ccc3cc([N+](=O)[O-])ccc3n2)CC1 [Compound 9, 2-{4-[4-(6-Nitro-quinolin-2-yl)-piperazin-1-yl]-butyl}-isoindole-1,3-dione] | 
11 | 1400 ± 100 | CC1(C)CC(=O)N(CCCCN2CCN(c3ccc4c(Cl)cccc4n3)CC2)C(=O)C1 [Compound 10, 1-{4-[4-(5-Chloroquinolin-2-yl)piperazin-1-yl]butyl}-4,4-di-methylopiperydine-2,6-dione] | 
12 |  | CC1CN(c2ccc3ccccc3n2)CCN1CCCCN1C(=O)c2ccccc2C1=O (stereo not shown) [Compound 12] | 13
13 |  | CC1CN(c2ccc3ccccc3n2)CCN1CCCCN1C(=O)CC(C)(C)CC1=O (stereo not shown) [Compound 18] | 15 ± 3
